Experimental data as given in patent US8716276B2, “Thiophenyl and pyrrolyl azepines as serotonin 5-HT2C receptor ligands and uses thereof” (Athersys, Inc., priority 2006, dated 2014).

Each compound was assayed against T1, human 5HT2c receptor (VNV Isoform) (Homo sapiens, UniProt P28335, I156V/I160V) (assay: Calcium mobilization (FLIPR) 5HT2c receptor agonist assay). Settings: HEK 293 EBNA cells expressing human 5HT2c receptor (VNV isoform), agonist-induced calcium fluorescence, read-out: 5-HT2c EC50 (hVNV).
T1 construct: expressed in transfected cells; host or cells: HEK 293 EBNA
T1 sequence (P28335 33-458 I156V/I160V): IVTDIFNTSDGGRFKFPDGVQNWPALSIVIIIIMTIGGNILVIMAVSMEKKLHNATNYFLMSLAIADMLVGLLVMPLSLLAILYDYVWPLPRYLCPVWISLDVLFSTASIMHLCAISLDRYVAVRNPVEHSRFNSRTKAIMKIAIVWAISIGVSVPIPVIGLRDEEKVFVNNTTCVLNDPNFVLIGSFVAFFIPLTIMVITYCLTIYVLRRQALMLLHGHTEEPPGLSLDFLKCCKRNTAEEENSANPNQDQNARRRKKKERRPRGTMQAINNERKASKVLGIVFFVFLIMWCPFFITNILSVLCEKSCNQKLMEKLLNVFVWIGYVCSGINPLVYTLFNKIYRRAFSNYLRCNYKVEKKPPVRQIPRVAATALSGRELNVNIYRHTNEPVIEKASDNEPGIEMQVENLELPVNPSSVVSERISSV
Format: cell-based
Procedure: The following procedure was utilized to evaluate representative compounds of the present invention as 5HT2c, receptor agonists.
5HT was utilized as a positive control. Ligand-induced calcium release and consequent fluorescence was measured on a Fluorometric Imaging Plate Reader (FLIPR, Molecular Device, CA).
All data were analyzed by nonlinear least square curve fitting using Prism 4.0 software. Agonist stimulation of calcium-induced fluorescence in FLIPR was fitted to sigmoidal dose response using equation Y=Bottom+(Top−Bottom)/(1+10^((Log EC50−X))), where X is the logarithm of concentration of compounds and Y is the fluorescent response.

SMILES	EC50
CC1CNCCc2sc3c(c21)C(C)(C)CC3C(F)(F)F (single isomer, unassigned) [17 Diastereomer 2]	< 1000 nM
CC1(C)CC(C(F)(F)F)c2sc3c(c21)CCNCC3 (racemic) [Example 7, (R,S)-3,3-Dimethyl-1-trifluoromethyl-1,2,3,4,5,6,7,8-octahydro-9-thia-6-aza-cyclopenta[a]azulene]	< 1000 nM
CC1CNCCc2sc3c(c21)CCC3C(F)(F)F (single isomer, unassigned) [Example 16, 4-Methyl-1-trifluoromethyl-1,2,3,4,5,6,7,8-octahydro-9-thia-6-aza-cyclopenta[a]azulene]	< 100 nM
Cc1c(C(=O)C(C)(C)C)sc2c1CCNCC2 [Example 1, 2,2-Dimethyl-1-(3-methyl-5,6,7,8-tetrahydro-4H-thieno[2,3-d]azepin-2-yl)-propan-1-one]	< 100 nM
CC1(C)CC2CNCCc3sc(Br)c1c32 (racemic) [Example 14, (R,S)-2-Bromo-3,3-dimethyl-4,4a,5,6,7,8-hexahydro-3H-1-thia-6-aza-cyclopenta[cd]azulene]	< 1000 nM
CC(C)(C)C(=O)c1sc2c(c1Cl)CCNCC2 [Example 19, 1-(3-Chloro-5,6,7,8-tetrahydro-4H-thieno[2,3-d]azepin-2-yl)-2,2-dimethyl-propan-1-one]	< 100 nM
CC1CNCCc2sc(C(=O)C(C)(C)C)cc21 (racemic) [Example 11, (R,S)-2,2-Dimethyl-1-(4-methyl-5,6,7,8-tetrahydro-4H-thieno[2,3-d]azepin-2-yl)-propan-1-one]	< 100 nM
FC(F)(F)Cc1sc2c3c1CCC3CNCC2 (racemic) [Example 13, (R,S)-2-(2,2,2-Trifluoro-ethyl)-4,4a,5,6,7,8-hexahydro-3H-1-thia-6-aza-cyclopenta[cd]azulene]	< 100 nM
CC1CNCCc2sc(CC(F)(F)F)c(Br)c21 (single isomer, unassigned) [Example 9, 3-Bromo-4-methyl-2-(2,2,2-trifluoro-ethyl)-5,6,7,8-tetrahydro-4H-thieno[2,3-d]azepine]	< 100 nM
CC(C)(c1cc2c(s1)CCNCC2)C(F)(F)F [Example 8, 2-(2,2,2-Trifluoro-1,1-dimethyl-ethyl)-5,6,7,8-tetrahydro-4H-thieno[2,3-d]azepine]	< 100 nM
CC1CNCCc2sc3c(c21)C(C)(C)CC3C(F)(F)F (single isomer, unassigned) [17 Diastereomer 1]	< 100 nM
CC1Cc2cc(Br)sc2CCN1 (racemic) [Example 15, (R,S)-2-Bromo-5-methyl-5,6,7,8-tetrahydro-4H-thieno[2,3-d]azepine]	< 1000 nM
CCS(=O)(=O)c1sc2c(c1C)C(C)CNCC2 (single isomer, unassigned) [Example 10, 2-Ethanesulfonyl-3,4-dimethyl-5,6,7,8-tetrahydro-4H-thieno[2,3-d]azepine]	< 100 nM
CC1CNCCc2sc(C(=O)C(C)(C)C)c(Br)c21 (single isomer, unassigned) [Example 12, 1-(3-Bromo-4-methyl-5,6,7,8-tetrahydro-4H-thieno[2,3-d]azepin-2-yl)-2,2-dimethyl-propan-1-one]	< 100 nM

Other lines, results leading:

EC50	SMILES
< 10 nM	CC(c1cc2c(s1)CCNCC2)C(F)(F)F (racemic) [Example 4, (R,S)-2-(2,2,2-Trifluoro-1-methyl-ethyl)-5,6,7,8-tetrahydro-4H-thieno[2,3-d]azepine]
< 10 nM	FC(F)(F)C1CCc2c1sc1c2CCNCC1 (racemic) [Example 6, (R,S)-1-Trifluoromethyl-1,2,3,4,5,6,7,8-octahydro-9-thia-6-aza-cyclopenta[a]azulene]
< 10 nM	O=S(=O)(c1ccccc1)c1cc2c(s1)CCNCC2 [Example 3, 2-Benzenesulfonyl-5,6,7,8-tetrahydro-4H-thieno[2,3-d]azepine]
< 10 nM	FC(F)(F)Cc1sc2c(c1Br)CCNCC2 [Example 2, 3-Bromo-2-(2,2,2-trifluoro-ethyl)-5,6,7,8-tetrahydro-4H-thieno[2,3-d]azepine]
< 10 nM	CCS(=O)(=O)c1cc2c(s1)CCNCC2 [Example 5, 2-Ethanesulfonyl-5,6,7,8-tetrahydro-4H-thieno[2,3-d]azepine]
< 10 nM	CC(C)(C)C(=O)c1cc2c(s1)CCNCC2 [Example 18, 2,2-Dimethyl-1-(5,6,7,8-tetrahydro-4H-thieno[2,3-d]azepin-2-yl)-propan-1-one]
